Where “and” joins values, the source holds several entries; their conditions need not be identical. Identical values can stand only once. Like-named read-outs stand apart in the source and are kept apart here.
What was measured:
Type in all cases: cell-based, human
[1] = system: MMP-9 release; assay: LPS- or CSE-induced MMP-9 release in isolated peripheral blood neutrophils (LUMINEX); conditions: for Maximal % Inhibition of MMP-9 release / IC50: 6 h; for IC50: Homo sapiens, Neutrophil, read-out: -log IC50, inhibition of MMP-9 release (converted)
Protocol: (§1) Neutrophils and monocytes were isolated from peripheral venous blood by standard laboratory procedures. In brief, peripheral venous blood was mixed with dextran 500 at 3% (in 0.9% saline) in a proportion of 2:1. This mixture was incubated at room temperature for 30 min until erythrocytes were sedimented. The upper phase was carefully collected and added on Ficoll-Paque Histopaque 1077 (Amershan Pharmacia Biotech, Barcelona, Spain) density gradient in a proportion of 3:1. The two phases generated were centrifuged at 150 g, 4° C. for 30 min. Thus, the interface was collected to isolate monocytes, and the pellet obtained (which is consisted a mixture of neutrophils and low proportion of residual erythrocytes and traces of eosinophils and basophils) was resuspended in an erythrocyte lysis buffer (Biolegend, UK) for 5 min in ice. Cell suspension was washed two times with phosphate buffer (PBS).
(§2) CSE was prepared as previously outlined (Milara et al.; Ortiz et al.). Briefly, the smoke of a research cigarette (2R4F; Tobacco Health Research, University of Kentucky, KY, USA) was generated by a respiratory pump (Apparatus Rodent Respirator 680; Harvard, Germany) through a puffing mechanism related to the human smoking pattern (3 puff/min; 1 puff 35 ml; each puff of 2 s duration with 0.5 cm above the filter) and was bubbled into a flask containing 25 ml of pre-warmed (37° C.) RPMI 1640 culture medium supplemented as describe above. The CSE solution was sterilized by filtration through a 0.22-μm cellulose acetate sterilizing system (Corning, N.Y.). The resultant CSE solution was considered to be 100% CSE and was used for experiments within 30 min of preparation. CSE 10% corresponds approximately to the exposure associated with smoking two packs per day (Su et al., 1998). The quality of the prepared CSE solution was assessed based on the absorbance at 320 nm, which is the specific absorption wavelength of peroxynitrite. Stock solutions with an absorbance value of 3.0±0.1 were used. To test for cytotoxicity from CSE, isolated neutrophils and monocytes were treated with CSE concentrations of up to 5% for 24.
(§3) Peripheral neutrophil cell suspension was adjusted to 500×10^3 cells per well in 24-well plates and incubated in RPMI culture medium for 1 h into the incubator at 37° C., 5% CO2. […] Both the stimulus and drug were remained together for 6 h. Supernatants were collected and centrifuged at 120 g for 5 min, and the free-cell supernatant was used to measure IL-8, MMP-9, IL-1β, GM-CSF and CCL-5.
(§4) IL-8 was determined by using commercially available enzyme-linked immunosorbent assay kit for IL-8 (R&D Systems, UK) according to the manufacturer's protocol. MMP-9, IL-1β, GM-CSF and CCL-5 were measured by LUMINEX technology according to the manufacturer's protocol.
(§5) Data were presented as mean±SEM. IC50 values were calculated for each drug and their combinations. Statistical analysis of results was carried out by analysis of variance (ANOVA) followed by Bonferroni test, by Student's t test, or by non-parametric tests as appropriate (GraphPad Software Inc, San Diego, Calif., USA). Significance was accepted when P<0.05. For clinical correlations of lung function and gene expression from neutrophils the non-parametric Spearman correlation analysis was carried out.

[2] = system: IL-1β release; assay: LPS-induced IL-1β release in isolated peripheral blood neutrophils (LUMINEX); conditions: for IC50: Homo sapiens, Neutrophil
Protocol: as §1, §3, §4, §5

[3] = system: CCL-5 release; assay: LPS-induced CCL-5 release in isolated peripheral blood neutrophils (LUMINEX); conditions: for IC50: Homo sapiens, Neutrophil
Protocol: as §1, §3, §4, §5

[4] = system: IL-8 release; assay: LPS- or CSE-induced IL-8 release in isolated peripheral blood neutrophils (ELISA); conditions: for Maximal % Inhibition of IL-8 release / IC50: 6 h; for IC50: Homo sapiens, Neutrophil, read-out: -log IC50, inhibition of IL-8 release (converted)
Protocol: as §1, §2, §3, §4, §5

[5] = system: PI3Kδ; assay: Real time RT-PCR of PI3Kδ expression in CSE-stimulated neutrophils from COPD patients; conditions: RNO 1 nM and 1 μM, DEX 1 μM, RNO 1 nM plus DEX 1 μM, NAC 1 mM, CSE 5%
Protocol: (§6) Neutrophils and monocytes were isolated from peripheral venous blood by standard laboratory procedures. In brief, peripheral venous blood was mixed with dextran 500 at 3% (in 0.9% saline) in a proportion of 2:1. This mixture was incubated at room temperature for 30 min until erythrocytes were sedimented. The upper phase was carefully collected and added on Ficoll-Paque Histopaque 1077 (Amershan Pharmacia Biotech, Barcelona, Spain) density gradient in a proportion of 3:1. The two phases generated were centrifuged at 150 g, 4° C. for 30 min. […]
(§7) CSE was prepared as previously outlined (Milara et al.; Ortiz et al.). […] The quality of the prepared CSE solution was assessed based on the absorbance at 320 nm, which is the specific absorption wavelength of peroxynitrite. Stock solutions with an absorbance value of 3.0±0.1 were used. […]
(§8) Total RNA was obtained from isolated neutrophils under basal conditions or after different drug and stimulation periods defined above by using TriPure® Isolation Reagent (Roche, Indianapolis, USA). […] Relative quantification of these transcripts was determined with the 2^−ΔΔCt method using glyceraldehyde phosphate dehydrogenase (GAPDH) as endogenous control (Applied Biosystems; 4352339E) and normalized to control group as previously described (Milara et al., 2009).
(§9) Then, mRNA was isolated and quantified for different genes.

[6] = system: GCβ; assay: Real time RT-PCR of GCβ mRNA in CSE-stimulated neutrophils from COPD patients; conditions: RNO 1 nM and 1 μM, DEX 1 μM, RNO 1 nM plus DEX 1 μM, NAC 1 mM, CSE 5%
Protocol: as §6, §7, §8, §9

[7] = system: HDAC2; assay: Real time RT-PCR of HDAC2 expression in CSE-stimulated neutrophils from COPD patients; conditions: RNO 1 nM and 1 μM, DEX 1 μM, RNO 1 nM plus DEX 1 μM, NAC 1 mM, CSE 5%
Protocol: as §6, §7, §8, §9

[8] = system: MIF; assay: Real time RT-PCR of MIF mRNA in CSE-stimulated neutrophils from COPD patients; conditions: RNO 1 nM and 1 μM, DEX 1 μM, RNO 1 nM plus DEX 1 μM, NAC 1 mM for 1 h, then CSE 5% 6 h
Protocol: as §6, §7, §8, §9

[9] = system: MKP1; assay: Real time RT-PCR of MKP1 mRNA in CSE-stimulated neutrophils from COPD patients; conditions: RNO 1 nM and 1 μM, DEX 1 μM, RNO 1 nM plus DEX 1 μM, NAC 1 mM for 1 h, then CSE 5% 6 h
Protocol: as §6, §7, §8, §9

[10] = system: p-ERK1/2; assay: Western blot of ERK1/2 phosphorylation in CSE-stimulated neutrophils from COPD patients; conditions: RNO 1 nM and 1 μM, DEX 1 μM, RNO 1 nM plus DEX 1 μM, NAC 1 mM for 1 h, then CSE 5% 20 min
Protocol: as §6, §7
Western blot analysis was used to detect changes in p-ERK1/2 (42-44 kD). […] Cells were then centrifuged and the total protein was extracted using a lysis buffer consisting of a complete inhibitor cocktail plus 1 mM ethylenediaminetetraacectic acid (Roche Diagnostics Ltd, West Sussex, UK) with 20 mM Tris base, 0.9% NaCl, 0.1% Triton X-100, 1 mM dithiothreitol and 1 μg mL^−1 pepstatin A. The Bio-Rad assay (Bio-Rad Laboratories Ltd., Herts, UK) was used (following manufacturer's instructions) to quantify the level of protein in each sample to ensure equal protein loading. […]

[11] = system: intracellular ROS; assay: Intracellular reactive oxygen species (ROS) by flow cytometry in whole blood neutrophils from COPD patients; conditions: fMLP 1 μM or CSE 5%, 1 h, NAC 1 mM
Protocol: Intracellular reactive oxygen species (ROS) were measured by a flow cytometry assay using 2′,7′-dichlorodihydrofluorescein diacetate (H2DCF-DA, Molecular Probes, UK) as previously outlined (Milara et al., 2010). H2DCF-DA was added for 15 min before stimulus to a final concentration of 5 μM to measure intracellular ROS. The bacterial peptide fMLP was added as stimulus at 1 μM […] to generate intracellular ROS (Elbim et al., 2001). In other experiments, to reproduce in vivo conditions, CSE 5% was added to generate intracellular ROS. Intracellular ROS was measured using fresh whole blood from COPD patients. Blood neutrophils were selected using CD16-Alexa Fluor 647 antibody (molecular probes, UK) as neutrophil marker, and CD14-PerCEP-Cy5.5 mouse antihuman (molecular probes, UK) as monocyte marker in an Epics Profile II flow cytometer. A total of 1 ml of whole blood was pre-incubated at 37° C. for 30 min with RNO ([…] (1 mM) and H2DCF-DA followed by fMLP 1 μM or CSE 5% stimulation for another 1 h. Then erythrocytes were lysed using a commercial erythrocyte lysis buffer (Biolegend, UK) for 10 min. Fluorescence intensity was measured in the polymorphonuclear region of whole blood in an Epics Profile II flow cytometer. Results were expressed as DCF fluorescence in relative fluorescence units (RFU).
To this end, whole blood was stimulated with the bacterial peptide fMLP 1 μM or with CSE 5% in presence or absence of RNO or NAC for 1 h.

[12] = CSE 5%, neutrophils from COPD patients
[13] = CSE 5%, neutrophils from HEALTHY
[14] = LPS (1 μg/ml), neutrophils from COPD patients
[15] = LPS (1 μg/ml), neutrophils from HEALTHY
[16] = LPS (1 μg/ml), 6 h, neutrophils from COPD patients
[17] = LPS (1 μg/ml), 6 h, neutrophils from HEALTHY
[18] = COPD neutrophils stimulated with LPS or CSE, LY-294002 10 μM, NAC 1 mM

C[C@@H]1C[C@H]2[C@@H]3CCC4=CC(=O)C=C[C@]4(C)[C@@]3(F)[C@@H](O)C[C@]2(C)[C@@]1(O)C(=O)CO [DEX, dexamethasone]
Maximal % Inhibition of MMP-9 release [1, 12]: 15.4% and 15.44 ± 6.95 %
Maximal % Inhibition of MMP-9 release [1, 13]: 83.9 ± 5.79%
IC50 [1, 12]: 2.19 nM
IC50 [1, 13]: 1.38 nM
IC50 [1, 14]: 46.8 nM
IC50 [1, 15]: 6.03 nM
Maximal % Inhibition of MMP-9 release [1, 14]: 8.8%
Maximal % Inhibition of MMP-9 release [1, 15]: 96.8 ± 5.1%
IC50 ([2]; 6 h, LPS (1 μg/ml), 6 h, neutrophils from COPD patients, read-out: -log IC50, inhibition of IL-1β release (converted)): 45.7 nM
IC50 ([2]; 6 h, LPS (1 μg/ml), 6 h, neutrophils from HEALTHY, read-out: -log IC50, inhibition of IL-1β release (converted)): 10.7 nM
IC50 ([2]; LPS, neutrophils from COPD patients, read-out: -log IC50, IL-1β release (converted)): 45.7 nM
IC50 ([2]; LPS, neutrophils from healthy volunteers, read-out: -log IC50, IL-1β release (converted)): 10.7 nM
Maximal % Inhibition of IL-1β release [2, 16]: 77.16 ± 5.69%
Maximal % Inhibition of IL-1β release [2, 17]: 79.58 ± 5.57%
IC50 ([3]; 6 h, LPS (1 μg/ml), 6 h, neutrophils from COPD patients, read-out: -log IC50, inhibition of CCL-5 release (converted)): 32.4 nM
IC50 ([3]; 6 h, LPS (1 μg/ml), 6 h, neutrophils from HEALTHY, read-out: -log IC50, inhibition of CCL-5 release (converted)): 7.24 nM
IC50 ([3]; LPS, neutrophils from COPD patients, read-out: -log IC50, CCL-5 release (converted)): 32.4 nM
IC50 ([3]; LPS, neutrophils from healthy volunteers, read-out: -log IC50, CCL-5 release (converted)): 7.24 nM
Maximal % Inhibition of CCL-5 release [3, 16]: 86.30 ± 10.16%
Maximal % Inhibition of CCL-5 release [3, 17]: 83.78 ± 8.64%
Maximal % Inhibition of IL-8 release [4, 12]: 20.6%
Maximal % Inhibition of IL-8 release [4, 13]: 94.33 ± 21.7%
IC50 [4, 12]: 15.5 nM
IC50 [4, 13]: 17 nM
IC50 [4, 14]: 42.7 nM
IC50 [4, 15]: 47.9 nM
Maximal % Inhibition of IL-8 release [4, 14]: 15%
Maximal % Inhibition of IL-8 release [4, 15]: 67.08 ± 11.41%

CC(=O)N[C@@H](CS)C(=O)O [NAC, N-acetyl-1-cysteine]
effect on CSE-induced PI3Kδ upregulation [5]: inhibited
effect on CSE-induced GCβ upregulation [6]: inhibited
effect on CSE-induced HDAC2 downregulation [7]: inhibited
rescue of DEX anti-inflammatory effect on MMP-9 release [1, 18]: able to rescue DEX anti-inflammatory effect
effect on CSE-induced increase of MIF mRNA expression [8]: reduced
effect on CSE-induced down-regulation of MKP1 mRNA expression [9]: effectively increased
rescue of DEX anti-inflammatory effect on IL-8 release [4, 18]: able to rescue DEX anti-inflammatory effect
effect on CSE-induced phosphorylation of ERK1/2 [10]: inhibited
effect on ROS generation in neutrophils [11]: inhibited
